Several values for one entry are separate records, joined by “and”; a condition that tells them apart may be missing. Equal entries are not always repeated.
Assays:
[1] = system: PDE4 purified from human U-937 pronocytic cells; assay: Phosphodiesterase activity, PDE4; format: biochemical; settings: 10 _M compound, n = 3
Description: Phosphodiesterase Activity: PDE activity was determined by the method of Nicholson et al. (Nicholson C D, Challiss R A, and Shahid M (1991) Differential modulation of tissue function and therapeutic potential of selective inhibitors of cyclic nucleotide phosphodiesterase isonzymes. Trends Pharmaclo Sci 12:19-27). PDE3 and PDE5 purified from human platelets and PDE4 purified from human U-937 pronocytic cells were used. Test compound (10 _M) or vehicle was incubated with 0.2 _g of enzyme and 1 _M cAMP containing 0.01 _M [^3H]cAMP in Tris buffer, pH 7.5, for 20 min at 25_. The reaction was terminated by boiling for 2 min, and the resulting […] was converted to adenosine by the addition of 10 mg/ml snake venom nucleotidase, which is followed by a further incubation at 37_for 10 min. Unhydrolyzed cAMP was bound to AG1-X2 resin, and the remaining [^3H]adenosine in the aqueous phase was quantitated by scintillation counting.

[2] = molecular target: T1, PDE3 purified from human platelets (Homo sapiens, UniProt Q14432); assay: Phosphodiesterase activity, PDE3; format: biochemical; settings: 10 _M compound, n = 3
T1 construct: PDE3 and PDE5 purified from human platelets; from tissue; host or cells: human platelets
Description: PDE3 and PDE5 purified from human platelets and PDE4 purified from human U-937 pronocytic cells were used. Test compound (10 _M) or vehicle was incubated with 0.2 _g of enzyme and 1 _M cAMP containing 0.01 _M [^3H]cAMP in Tris buffer, pH 7.5, for 20 min at 25_. The reaction was terminated by boiling for 2 min, and the resulting cAMP was converted to adenosine by the addition of 10 mg/ml snake venom nucleotidase, which is followed by a further incubation at 37_for 10 min. Unhydrolyzed cAMP was bound to AG1-X2 resin, and the remaining [^3H]adenosine in the aqueous phase was quantitated by scintillation counting.

[3] = system: guinea pig tracheal smooth muscle cells; assay: Measurement of cGMP in TSMCs; format: cell-based; settings: for GMP level: basal 1.18±0.06
Description: (§1) Cell Culture of Tracheal Smooth Muscle: Guinea pigs (350-450 g) were injected i.p. with a lethal dose of pentobarbital. The tracheas were excised and cut longitudinally through the cartilage. Using a dissecting microscope, TSM strips were dissected from the surrounding parentchyma. The epithelium was removed from the luminal surface, and bands of TSM were gently separated from the underlying connective tissue. Then TSM strips were chopped into small sections (1 mm^3) and incubated in Hanks' balanced salt solution (138 mM NaCl, 4 mM NaHCO3, 5 mM KCl, 0.3 mM KH2PO4, 0.3 mM Na2HPO4, and 1.0 mM glucose) with 0.05% elastase type IV and 0.2% collagenase type IV (Invitrogen, Carlsbad, Calif.) for 30 min at 37_ with gentle shaking. The solution of dissociated smooth muscle cells was centrifuged (6 min at 500 g), and the pellet was resuspended in 1:1 Dulbecco's modified Eagle's medium/Ham's F-12 medium supplemented with 10% fetal bovine serum, 0.244% NaHCO3, and 1% penicillin/streptomycin. Cells were cultured in 25-cm^2 flasks at 37_ in humidified air containing 5% CO2. Confluent cells were detached with 0.25% trypsin-0.02% EDTA at 37_and then subcultured to establish secondary cultures. Cultures were maintained for no more than four passages. They were identified as smooth muscle cells by the typical hill-and-valley appearance, and cellular homogeneity was further confirmed by the presence of smooth muscle specific _-myosin and _-actin immunoreactivity. Indirect immunofluorescence staining for a variety of antigens was carried out by first plating the cells on chamber slides, fixing the cells in 3.7% formaldehyde-phosphate-buffered saline for 10 min, and permeabilizing the cells with phosphate-buffered saline and 0.1% Triton X-100. Cells were then stained with either a mouse monoclonal antibody directed against the amino-terminal 10 amino acids of _-smooth muscle actin or _-myosin (Roche Diagnostics, Indianapolis, Ind.). All cells were stained with fluorescein-labeled goat anti-mouse IgG antibody (Roche Diagnostics).
Measurement of cAMP and cGMP: Intracellular concentrations of cAMP and cGMP in TSMCs were measured as in our previous reports (Wu B N, Lin R J, Lin C Y, Shen K P, Chiang L C, and Chen I J (2001) A xanthine-based KMUP-1 with cyclic GMP enhancing and K^+ channels opening activities in rat aortic smooth muscle. Br J Pharmacol 134:265-274; Lin R J, Wu B N, Lo Y C, Shen K P, Lin Y T, Huang C H, and Chen I J (2002) KMUP-1 relaxes rabbit corpus cavernosum smooth muscle in vitro and in vivo: involvement of cyclic GMP and K(+) channels, Br J Pharmacol 135:1159-1166). In brief, cells were finally grown in 24-well plates (10^5 cells/well). At confluence, monolayer cells were washed with phosphate-buffered saline and then incubated with KMUP-3 (0.01-100 _M) for 20 min at 37_ in medium. […] The reaction was terminated by replacement of medium with 1 ml of ice-cold 1 N hydrochloric acid. Cells suspensions were sonicated and then centrifuged at 2500 g for 15 min at 4_. Then, the supernatants were lyophilized and the cAMP and cGMP of each sample were determined using commercially available radioimmunoassay kits (GE Healthcare, Little Chalfont, Buckinghamshire, UK).

[4] = system: cultured guinea pig tracheal smooth muscle cells; assay: Expression of PKA and PKG (Western blot); format: cell-based
Description: as §1
Expression of PKA and PKG: The expression of PKA and PKG was determined by Western blot as previously described by Wu et al. and Murthy et al. (Wu B N, Lin R J, Lo Y C, Shen K P, Wang C C, Lin Y T, and Chen I J (2004) KMUP-1, a xanthine derivatives, induces relaxation of guinea-pig isolated trachea: the role of the epithelium, cyclic nucleotides and K^+ channels. Br J Pharmacol 142:1105-1114; Murthy K S, Zhou H, and Makhlouf G M (2002) PKA-dependent activation of PDE3A and PDE4 and inhibition of adenylyl cyclase V/VI in smooth muscle. Am J Physiol 282:C508-C517). Guinea pig TSMCs were incubated with KMUP-3 for 30 min. Each of the cell lysates, each containing 1 _g of cellular protein, was electrophoresed in 7.5% SDS-polyacrylamide gel electrophoresis and then transferred to polyvinylidene diflouride membrane (Millipore Corporation, Billerica, Mass.). The membrane was stained with Ponceau S to verify the integrity of the transferred proteins and to monitor the unbiased transfer of all protein samples. The membrane was then washed with 25 ml of TBS (100 mM NaCl, 0.1% and 10 mM Tris-HCl, pH 7.5) for 5 min at room temperature and incubated in 25 ml of blocking buffer (TBS plus 0.1% Tween 20 and 5% nonfat milk) overnight at 4_. In the measurement of protein, the membrane was incubated with appropriate PKARI or PKA1—1— primary antibody (diluted 1:250) in 2 ml of blocking buffer for 1 h at room temperature, washed three times for 5 min each with 15 ml of Tris-buffered saline/Tween 20 (TBS plus 0.1% Tween 20), incubated with horseradish peroxidase-conjugated secondary antibody (1:10,000) in 15 ml of blocking buffer with gentle agitation for 1 h at room temperature, and finally washed three times for 5 min each time with 15 ml of Tris-buffered saline/Tween 20. The membrane was then subjected to enhanced chemiluminescence (GE Healthcare) for the detection of the specific antigen.

T1 sequence (Q14432 whole entry): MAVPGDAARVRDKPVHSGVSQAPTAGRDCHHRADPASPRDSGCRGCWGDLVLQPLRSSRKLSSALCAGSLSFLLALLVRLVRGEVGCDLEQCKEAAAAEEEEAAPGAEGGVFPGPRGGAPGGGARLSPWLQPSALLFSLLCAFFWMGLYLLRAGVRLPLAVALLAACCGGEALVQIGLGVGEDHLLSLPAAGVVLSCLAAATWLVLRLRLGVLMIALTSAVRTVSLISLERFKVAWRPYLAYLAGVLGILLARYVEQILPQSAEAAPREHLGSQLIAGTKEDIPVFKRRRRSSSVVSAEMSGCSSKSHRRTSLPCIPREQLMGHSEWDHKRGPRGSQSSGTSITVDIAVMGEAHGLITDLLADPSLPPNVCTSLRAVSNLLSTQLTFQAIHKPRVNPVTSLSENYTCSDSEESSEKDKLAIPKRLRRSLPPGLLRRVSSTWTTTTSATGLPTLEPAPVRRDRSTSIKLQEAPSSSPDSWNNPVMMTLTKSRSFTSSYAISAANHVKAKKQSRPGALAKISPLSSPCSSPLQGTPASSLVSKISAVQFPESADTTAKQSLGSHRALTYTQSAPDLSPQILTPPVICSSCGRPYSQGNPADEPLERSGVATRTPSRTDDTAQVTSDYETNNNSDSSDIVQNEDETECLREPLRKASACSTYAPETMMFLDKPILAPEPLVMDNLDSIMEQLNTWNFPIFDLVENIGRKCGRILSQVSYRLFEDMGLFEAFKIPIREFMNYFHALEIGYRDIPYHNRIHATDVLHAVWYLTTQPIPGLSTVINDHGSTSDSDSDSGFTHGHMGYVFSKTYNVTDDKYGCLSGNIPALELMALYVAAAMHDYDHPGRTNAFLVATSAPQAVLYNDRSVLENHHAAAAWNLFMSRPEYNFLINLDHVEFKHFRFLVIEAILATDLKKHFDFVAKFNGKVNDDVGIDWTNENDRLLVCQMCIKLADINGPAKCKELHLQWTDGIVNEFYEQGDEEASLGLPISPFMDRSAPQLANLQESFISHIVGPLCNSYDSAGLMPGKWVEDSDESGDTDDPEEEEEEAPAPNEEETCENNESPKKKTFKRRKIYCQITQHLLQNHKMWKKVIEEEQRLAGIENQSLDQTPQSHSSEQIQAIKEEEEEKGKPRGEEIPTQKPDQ

Cn1c(=O)c2c(ncn2CCN2CCN(c3ccc([N+](=O)[O-])cc3)CC2)n(C)c1=O [KMUP-3]
PDE4 Inhibition [1]: 48 ± 2.1 %
PDE3 inhibition [2]: 55 ± 2.5 %
GMP level ([3]; 0.01 _M, 20 min): 1.62±0.05 pmol/mg protein
GMP level ([3]; 0.1 _M, 20 min): 1.73±0.01 pmol/mg protein
GMP level ([3]; 1 _M, 20 min): 1.75±0.04 pmol/mg protein
GMP level ([3]; 10 _M, 20 min): 1.86±0.05 pmol/mg protein
Cyclic GMP level in presence of L-NAME ([3]; 100 _M compound plus L-NAME (100 _M) pretreatment): 1.28 ± 0.01 pmol/mg protein
Cyclic GMP level in presence of ODQ ([3]; 100 _M compound plus ODQ (10 _M) pretreatment): 1.35 ± 0.04 pmol/mg protein
amounts of cGMP versus vehicle (FIG. 6) ([3]; 100 _M, 20 min): significantly enhances
Cyclic GMP level ([3]; 100 _M, 20 min, basal/vehicle 1.18±0.06): 1.98±0.09 pmol/mg protein and 1.98 ± 0.08 pmol/mg protein
expression of PKA1—1— (FIG. 7(B)) ([4]; 1 _M, 30 min): increased the expression of PKA1—1—
expression of immunoreactive PKARI protein (FIG. 7(A)) ([4]; 1 _M, 30 min): increased the expression of PKARI
PKG protein after ODQ pretreatment ([4]; ODQ (10_M) 30 min prior to compound (1 _M)): significantly reduced
PKA protein expression after ODQ pretreatment ([4]; ODQ (10 _M) 30 min prior to compound, unpublished data): did not significantly affect
expression of PKARI after SQ 22536 pretreatment ([4]; SQ 22536 (100 _M) 30 min prior to compound (1 _M)): attenuated

From patent publication US20080051413A1, “Nitrophenylpiperazine derivative of xanthine which relaxes tracheal airway and increases respiratory performance” (KAOHSIUNG MEDICAL UNIVERSITY, priority 2006, published 2008)
